Where “and” joins values, the source holds several entries; their conditions need not be identical. Identical values can stand only once.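 Interpolation was linear, between the two tested concentrations surrounding the appropriate level; five concentrations were tested over 48 hours in 96-well plates. GI50 marks 50% less growth. TGI is the concentration that stops growth completely.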
Experiments:
Assay in all cases: DTP human tumour cell line panel, 48 h
786-0 renal = test system: 786-0 renal
HOP-62 NSCLC = test system: HOP-62 NSCLC
HOP-92 NSCLC = test system: HOP-92 NSCLC
K-562 leukemia = test system: K-562 leukemia
M14 melanoma = test system: M14 melanoma
OVCAR-3 ovarian = test system: OVCAR-3 ovarian
RPMI-8226 leukemia = test system: RPMI-8226 leukemia
RXF 393 renal = test system: RXF 393 renal
SK-MEL-2 melanoma = test system: SK-MEL-2 melanoma
SK-OV-3 ovarian = test system: SK-OV-3 ovarian
T-47D breast = test system: T-47D breast

| SMILES | TGI (786-0 renal) [µM] | TGI (HOP-62 NSCLC) [µM] | TGI (HOP-92 NSCLC) | TGI (K-562 leukemia) [µM] | TGI (M14 melanoma) [µM] | TGI (OVCAR-3 ovarian) [µM] | TGI (RPMI-8226 leukemia) [µM] | TGI (RXF 393 renal) | TGI (SK-MEL-2 melanoma) [µM] | TGI (SK-OV-3 ovarian) | TGI (T-47D breast) [µM] | GI50 (HOP-62 NSCLC) | GI50 (HOP-92 NSCLC) | GI50 (K-562 leukemia) | GI50 (OVCAR-3 ovarian) | GI50 (RPMI-8226 leukemia) | GI50 (SK-MEL-2 melanoma) | GI50 (SK-OV-3 ovarian) |
| --- | --- | --- | --- | --- | --- | --- | --- | --- | --- | --- | --- | --- | --- | --- | --- | --- | --- | --- |
| CC(C)=CCC[C@@H](C)C1=C(O)C(N)=C(C)C(=O)C1=O | > 100 | > 100 | > 100 µM | > 100 | > 73.2 | > 100 | 98.6 | > 100 µM | > 100 | > 100 µM | > 88.4 |  |  |  |  |  |  |  |
| C=CCN1C(=O)/C(=C/c2ccc(C)cc2)N=C1SC1OC(COC(C)=O)C(OC(C)=O)C(OC(C)=O)C1OC(C)=O (stereo not drawn) | > 100 | > 100 | > 100 µM and 53.4 µM | > 100 | > 100 | > 100 | > 100 | > 39.5 µM and 61.6 µM | > 100 | > 100 µM and 85.4 µM | > 100 | 5.17 µM and 47.4 µM | > 100 µM and 11.6 µM | > 73.9 µM and 29.9 µM | > 100 µM and 29.4 µM | > 100 µM and 20.2 µM | > 100 µM and 38.3 µM | > 100 µM and 28.9 µM |
| C=CC(=O)N1C/C(=C\c2ccc(Cl)cc2)C(=O)/C(=C/c2ccc(Cl)cc2)C1 | 0.55 | 1.02 | 4.25 µM |  | 0.735 | 1.03 |  | 0.659 µM | 2.85 | 1.71 µM | 6.85 |  |  |  |  |  |  |  |
| Cc1c(-c2ccccc2)[nH]n(C2=NCCN2)c1=O | > 100 | > 100 | > 100 µM | > 100 | > 100 | > 100 | > 100 | > 100 µM | > 100 | > 100 µM | > 100 |  |  |  |  |  |  |  |
| COc1ccc(Oc2cnn(C(Br)(Br)C(C)=O)c(=O)c2Br)cc1 | 27.4 | 35.5 | 29.4 µM | 16.9 | 30.6 | 13.6 | 11.8 | 16.8 µM | 31.4 | > 64.3 µM | 61 |  |  |  |  |  |  |  |
| O=S1(=O)C[C@@H](NCc2ccccc2)[C@H](NCc2ccccc2)C1 |  | > 100 | > 100 µM | > 100 | > 100 | > 100 | > 100 | > 100 µM | > 100 | > 100 µM | > 100 |  |  |  |  |  |  |  |
| CN1CCN(C2=C(Cl)C3(OCCS3)C(F)(F)C2(F)F)CC1 (stereo not drawn) | > 100 | > 100 | > 100 µM | > 100 | > 100 | > 100 | > 100 | > 100 µM | > 100 | > 100 µM | > 100 |  |  |  |  |  |  |  |
| CC(C)C(N)C(=O)NC(CCC(=O)NCCCCC(N)C(=O)NCCCNc1ccc([N+](=O)[O-])c2[nH]c3ccccc3c(=O)c12)C(N)=O (stereo not drawn) | > 100 | > 100 | > 100 µM | > 100 | > 100 | > 100 | > 100 | 46.5 µM | > 100 | > 100 µM | > 100 |  |  |  |  |  |  |  |
| CC(C)[Si](OC/C(=C/COC(C)(C)C)[C@H]1CC=C(C(=O)c2ccccc2N2CN(C)C(=O)N(C)C2)C1)(C(C)C)C(C)C | 17.9 | 31.5 | 25.1 µM | > 36.4 | 27 | 25 | 15.6 | 17.5 µM | 28.9 | 31.2 µM | 23.6 |  |  |  |  |  |  |  |

— PubChem BioAssay (NCI)
